Our source for the IC50 values is US20050282818A1, “Ubiquitin ligase inhibitors” (Rigel Pharmaceuticals, Inc., priority 2004, published 2005).

The target of experiment [1] is T1, TRAF6/Uev1A/Ubc13 (Homo sapiens, UniProt Q9Y4K3).
T1 sequence (Q9Y4K3 1-522): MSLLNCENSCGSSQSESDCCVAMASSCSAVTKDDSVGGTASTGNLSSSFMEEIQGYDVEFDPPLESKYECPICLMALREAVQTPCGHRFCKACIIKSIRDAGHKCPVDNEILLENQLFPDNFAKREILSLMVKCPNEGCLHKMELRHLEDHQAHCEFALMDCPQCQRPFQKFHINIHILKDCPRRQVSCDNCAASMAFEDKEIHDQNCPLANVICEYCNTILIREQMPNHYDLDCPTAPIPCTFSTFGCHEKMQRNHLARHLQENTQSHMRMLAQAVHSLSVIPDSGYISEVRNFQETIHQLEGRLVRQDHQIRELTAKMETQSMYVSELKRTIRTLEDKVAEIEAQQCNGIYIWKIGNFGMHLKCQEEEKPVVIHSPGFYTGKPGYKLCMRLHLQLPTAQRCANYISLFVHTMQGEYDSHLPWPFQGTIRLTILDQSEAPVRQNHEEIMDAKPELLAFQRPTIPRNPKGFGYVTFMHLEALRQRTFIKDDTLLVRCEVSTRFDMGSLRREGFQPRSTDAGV
Briefly: TRAF6/Uev1A/Ubc13 plate-based ubiquitin ligase assay. Type of experiment: biochemical. In short, it runs like this:
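Ligase activity was read as luminescence from anti-Flag/HRP detection of Flag-ubiquitin bound to casein-blocked Ni-plates alongside His-ubiquitin after a 1 h room-temperature reaction. Buffer: 62.5 mM Tris pH 7.5, 6.25 mM MgCl2, 1.0 mM DTT, 2 μM ATP; E1, Uev1a/Ubc13 and TRAF6 added last to start. IC50s derived across compound concentrations.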

The target in experiment [2] is APC11/APC2 (Homo sapiens, UniProt Q9NYG5+Q9UJX6). Briefly: APC-11/APC-2 ligase assay (APC auto ubiquitination). It counts as biochemical. As to conditions: APC assay. The method, then: For the assays described below, the TRAF6/Uev1A/UBC13 assay is the biochemical plate-based assay of TRAF6 ligase activity using Ubc13 as the E2 enzyme. The gel-based assay is the biochemical solution-based TRAF6 ligase assay (by SDS-PAGE and Western blot) to confirm the plate-based ELISA assay. The APC assay is an assay which is another E3 ligase (APC2/APC11) biochemical assay.
E3 (His APC11/APC2— “APC”) auto ubiquitination was measured as described in U.S. patent application Ser. No. 09/826,312 (Publication No. U.S. 2002 0042083 A1), which is incorporated by reference in its entirety. Details of the protocol are described below. Activity in the presence of the compound was determined relative to a parallel control in which only DMSO was added. Values of the IC50 were typically determined using 6 or 8 different concentrations of the compound, although as few as 2 concentrations may be used to approximate the IC50 value.
Nickel coated 96 well plates (Pierce 15242) were blocked for 1 hour with 100 μl of blocking buffer at room temperature. The plates were washed 4 times with 225 μl of 1 […]PBS and 80 μl of the reaction buffer were added that contained 100 ng/well of Flag ubiquitin. To this, 10 μl of the test compound diluted in DMSO were added. After the test compound was added, 10 μl of E1 (human), E2 (Ubch5c), and APC in Protein Buffer was added to obtain a final concentration of 5 ng/well of E1, 20 ng/well of E2 and 100 ng/well of APC. The plates were shaken for 10 minutes and incubated at room temperature for 1 hour. After incubation, the plates were washed 4 times with 225 μl of 1×PBS and 100 μl/well of Antibody Mix were added to each well. The plates were incubated at room temperature for another hour after which they were washed 4 times with 225 μl of 1×PBS and 100 μl/well of Lumino substrate were added to each well. The luminescence was measured by using a BMG luminescence microplate reader. The Blocking Buffer (1% Casein in 1×PBS) was stored at 4° C. until use.
The reaction buffer consisted of 62.5 mM Tris pH 7.6 (Trizma Base—Sigma T 8524), 3 mM MgCl2 (Magnesium Chloride—Sigma M 2393), 1 mM DTT (Sigma D 9779), 2.5 mM ATP (Roche Boehringer Mann Corp. 635 316), 100 ng/well of Flag ubiquitin, 0.1% BSA (Sigma A 7906), and 0.05% Tween 20 (Sigma P 7949).
The Protein Buffer consisted of 20 mM Tris pH 7.6, 10% glycerol (Sigma G 5516) and 1 mM DTT.
The antibody mix consisted of 0.25% BSA (Sigma A 7906) in 1×PBS, 1/50,000 anti Flag (Sigma F 3165), 1/100,000 of anti Mouse IgG HRP (Jackson Imrunoresearch #115 035 146).
The substrate mix consisted of SuperSignal Substrate from Pierce (catalog number 37070ZZ) and was prepared by mixing 100 ml of the peroxide solution, 100 ml of the enhancer solution and 100 ml of Milli Q® water.

Experiment [3] has as its system A549 cells. Briefly: Cell proliferation PAD assay, A549. Type of experiment: cell-based. As to conditions: 48 hours. A digest of the protocol:
(§1)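 Cells plated at 2,000/well; compounds added 24 h later as 6.3-fold dilutions from a 10 mM master stock, diluted 500-fold into wells, in duplicate. After 48 h at 37 °C, 5% CO2, cells were formamide-fixed, DAPI-stained and imaged to count live, apoptotic and dead cells.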

The test system of experiment [4] is ICAM-1 expression in A549 cells. Briefly: ICAM assay (IL-1 induced ICAM-1/CD54 expression in A549 cells). Type of experiment: cell-based, human. The text has this: The expression of intercellular adhesion molecule (ICAM)-1 in endothelial cells is pivotal in supporting lymphocyte migration across the vascular endothelium. TNF/IL-1 induces the NF-kB pathway in which NF-kB acts as a transcription factor and activation of NF-kB induces ICAM expression. IkB inhibits NF-KB by binding to it and retaining NF-kB in the cytoplasm. Upon cytokine stimulation, several signaling molecule including TRAF6, IKKs, and TAK1 are activated which lead to the phosphorylation of IkB. Phosphorylated IkB is then ubiquitinated by the SCF complex and degraded by proteasome, thereby releasing NF-kB to translocate into the nucleus. In the nucleus, NF-kB binds to DNA and activates transcription of various genes that are involved in inflammation, cell survival, and apoptosis. The ICAM assay is a primary assay for HTS as well as a cell based assay for TRAF6 inhibitors.
The following materials are used 96-well plates; F12K complete medium that includes 10% FBS and 1% P/S (penicillin/streptomycin); 1×PBS; 5 ug/ml IL-1, Human CD54 (CALTAG Laboratory, Cat#MHCD5400-4); anti-mouse-IgG (Jackson Lab, Cat#115-035 146); and A549 cells.
Procedure. 10,000 A549 cells/well were seeded in 100 μl F12K complete medium in a 96-well white plate. The seeded plate was incubate at 37° C. incubator in 5% CO2 overnight. After the overnight incubation, 4 μl of diluted test compound was added and incubated for 1 hour at 37° C. After the 1 hour incubation, 4 μl of 25 ng/ml IL-1 was added to each well and the cells were stimulated at 37° C. for 4 hours.
After stimulation, the cells were stained with CD54 (1:1000 diluted with medium) and anti-mouse IgG (1:1100 diluted with medium) for 1 hour. Subsequently, the medium was removed and each well was washed with 200 μl of PBS three times. Detection of activity was performed by addition of 100 μl/well of lumino substrate.

Experiment [5] deals with H1299 cells. The experiment in a line: Cell proliferation PAD assay, H1299. Type of experiment: cell-based. As to conditions: 48 hours. In short, it runs like this: as §1
Where [6] appears, read: Homo sapiens, 6pt, read-out: A549 6pt.
Setting [7] is: Homo sapiens, NCI-H1299, 6pt, read-out: H1299 6pt.
Where [8] appears, read: Homo sapiens, 3pt, read-out: A549 3pt.
The mark [9] stands for this setting: Homo sapiens, NCI-H1299, 3pt, read-out: H1299 3pt.

pIC50: −log10 of the molar value. Where two headings read alike, the source gives them in different places.

APC11/APC2, sequence (Q9NYG5 whole entry): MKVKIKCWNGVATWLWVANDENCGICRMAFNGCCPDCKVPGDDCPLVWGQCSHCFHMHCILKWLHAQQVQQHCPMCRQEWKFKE
APC11/APC2, sequence (Q9UJX6 whole entry): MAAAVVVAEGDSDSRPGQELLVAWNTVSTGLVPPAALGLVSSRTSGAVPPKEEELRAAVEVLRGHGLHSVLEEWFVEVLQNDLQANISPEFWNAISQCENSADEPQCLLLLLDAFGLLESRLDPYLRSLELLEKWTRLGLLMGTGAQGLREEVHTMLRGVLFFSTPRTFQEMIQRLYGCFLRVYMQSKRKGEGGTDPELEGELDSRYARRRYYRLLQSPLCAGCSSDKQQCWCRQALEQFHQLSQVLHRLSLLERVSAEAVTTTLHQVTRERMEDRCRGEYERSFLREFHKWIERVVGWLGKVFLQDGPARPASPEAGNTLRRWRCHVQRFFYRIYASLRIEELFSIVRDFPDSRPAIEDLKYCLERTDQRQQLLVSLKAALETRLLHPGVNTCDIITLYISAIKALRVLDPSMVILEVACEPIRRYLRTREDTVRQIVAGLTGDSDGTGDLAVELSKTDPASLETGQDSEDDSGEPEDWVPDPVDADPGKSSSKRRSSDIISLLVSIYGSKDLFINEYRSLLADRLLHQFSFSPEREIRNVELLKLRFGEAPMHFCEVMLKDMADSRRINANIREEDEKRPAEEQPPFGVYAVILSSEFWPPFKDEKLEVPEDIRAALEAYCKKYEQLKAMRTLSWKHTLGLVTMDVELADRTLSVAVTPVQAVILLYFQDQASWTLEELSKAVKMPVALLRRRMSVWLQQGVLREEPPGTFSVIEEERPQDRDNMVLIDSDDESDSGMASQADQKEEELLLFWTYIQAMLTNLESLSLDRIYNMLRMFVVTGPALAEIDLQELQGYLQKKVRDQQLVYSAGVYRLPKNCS

Regarding `O=[N+]([O-])c1ccc(N2CCN(c3cnccn3)CC2)c2nonc12` [compound 84], the pIC50 in experiment [1] and in experiment [2] was 4.70 to 6.00 throughout.
For the compound `O=[N+]([O-])c1ccc(Sc2cccc(Cl)c2)c2nonc12` [compound 149, 4-[(3-chlorophenyl)thio]-7-nitro-2,1,3-benzoxadiazole], the pIC50 in experiment [1] and in experiment [2] was 4.70 to 6.00 each time.
As to `Cc1ccc(Sc2ccc([N+](=O)[O-])c3nonc23)cc1` [compound 157, 4-[(4-methylphenyl)thio]-7-nitro-2,1,3-benzoxadiazole], the pIC50 in experiment [1] and in experiment [2] was 4.70 to 6.00 throughout.
On to `O=S(=O)(c1c(Cl)ccc2nonc12)N1CCN(c2ccc(Cl)c(C(F)(F)F)c2)CC1` [compound 182, 5-chloro-4-({4-[4-chloro-3-(trifluoromethyl)phenyl]piperazin-1-yl}sulfonyl)-2,1,3-benzoxadiazole], for which the pIC50 in experiment [1] is at most 4.70; in experiment [3] (setting [6]), 4.70 to 6.00; in experiment [4] (Homo sapiens, A549, ICAM assay), at most 4.70; in experiment [5] (setting [7]) it was 4.70 to 6.00.
Take `O=S(=O)(c1ccc(Cl)c2nonc12)N1CCN(CCOCCO)CC1` [compound 185, 2-(2-{4-[(7-chloro-2,1,3-benzoxadiazol-4-yl)sulfonyl]piperazin-1-yl}ethoxy)ethanol]: the pIC50 in experiment [1] was at most 4.70; in experiment [3] (setting [6]), 4.70 to 6.00; in experiment [4] (Homo sapiens, A549, ICAM assay), at most 4.70; in experiment [5] (setting [7]), 4.70 to 6.00.
Turning to `CN1CCN(S(=O)(=O)c2ccc(Cl)c3nonc23)CC1` [compound 189, 4-chloro-7-[(4-methylpiperazin-1-yl)sulfonyl]-2,1,3-benzoxadiazole], the pIC50 in experiment [1] is at most 4.70; in experiment [3] (setting [8]) it was 4.70 to 6.00; in experiment [4] (Homo sapiens, A549, ICAM assay), at most 4.70; in experiment [5] (setting [9]), 4.70 to 6.00.
As for `O=S(=O)(c1ccc(Sc2cccc3cccnc23)c2nonc12)N1CCN(c2ccccc2)CC1` [compound 217, 8-({7-[(4-phenylpiperazin-1-yl)sulfonyl]-2,1,3-benzoxadiazol-4-yl}thio)quinoline], the pIC50 in experiment [1] was 4.70 to 6.00; in experiment [3] (setting [6]), 4.70 to 6.00; in experiment [4] (Homo sapiens, A549, ICAM assay), at most 4.70; in experiment [5] (setting [7]), 4.70 to 6.00.
Consider `O=S(=O)(c1ccc(Cl)c2nonc12)N1CCC(Oc2ncccn2)CC1` [compound 225, 4-chloro-7-{[4-(pyrimidin-2-yloxy)pipendin-1-yl]sulfonyl}-2,1,3-benzoxadiazole], for which the pIC50 was at most 4.70 in experiment [1]; 4.70 to 6.00 in experiment [3] (3pt, read-out: A549 3pt); at most 4.70 in experiment [4] (ICAM assay); 4.70 to 6.00 in experiment [5] (3pt, read-out: H1299 3pt).
Regarding `O=S(=O)(c1c(Cl)ccc2nonc12)N1CCC(Oc2ccccc2C(F)(F)F)CC1` [compound 229, 5-chloro-4-({4-[2-(trifluoromethyl)phenoxy]piperidin-1-yl}sulfonyl)-2,1,3-benzoxadiazole], the pIC50 in experiment [1] was 4.70 to 6.00; in experiment [3] (setting [6]), 4.70 to 6.00; in experiment [4] (Homo sapiens, A549, ICAM assay), at most 4.70; in experiment [5] (setting [7]), above 6.00.
Take `O=S(=O)(c1c(Cl)ccc2nonc12)N1CCC(Oc2ncccn2)CC1` [compound 234]: the pIC50 in experiment [1] is at most 4.70; in experiment [3] (setting [8]) it was 4.70 to 6.00; in experiment [4] (Homo sapiens, A549, ICAM assay), at most 4.70; in experiment [5] (setting [9]), 4.70 to 6.00.
Turning to `O=S(=O)(c1c(N2CCC(Oc3ncccn3)CC2)ccc2nonc12)N1CCC(Oc2ncccn2)CC1` [compound 236, 5-[4-(1,3-pyrimidin-2-yloxy)piperidin-1-yl]-4-{[4-(1,3-pyrimidin-2-yloxy)piperidin-1-yl]sulfonyl}-2,1,3-benzoxadiazole], the pIC50 in experiment [1] was at most 4.70; in experiment [3] (setting [8]) it was 4.70 to 6.00; in experiment [4] (Homo sapiens, A549, ICAM assay), at most 4.70; in experiment [5] (setting [9]), 4.70 to 6.00.
Take `O=S(=O)(Nc1cccc(F)c1F)c1ccc(Cl)c2nonc12` [compound 271, 7-chloro-N-(2,3-difluorophenyl)-2,1,3-benzoxadiazole-4-sulfonamide]: the pIC50 in experiment [1] was 4.70 to 6.00; in experiment [4] (Homo sapiens, A549, ICAM assay), at most 4.70.
On to `O=S(=O)(Nc1cccc(F)c1F)c1ccc(F)c2nonc12` [compound 274, N-(2,3-difluorophenyl)-7-fluoro-2,1,3-benzoxadiazole-4-sulfonamide], for which the pIC50 in experiment [1] was 4.70 to 6.00; in experiment [4] (Homo sapiens, A549, ICAM assay), at most 4.70.
In the case of `O=[N+]([O-])c1ccc([S+]([O-])c2cccc3cccnc23)c2nonc12` (stereo not shown) [compound 291, 8-[(7-nitro-2,1,3-benzoxadiazol-4-yl)sulfinyl]quinoline], the pIC50 in experiment [1] was 4.70 to 6.00; in experiment [3] (setting [6]) it was above 6.00; in experiment [4] (Homo sapiens, A549, ICAM assay), at most 4.70; in experiment [5] (setting [7]) it was above 6.00.
With `CC(C)(C)c1ccc(-c2cccc3nonc23)cc1` [compound 307, 4-(4-Tert-butylphenyl)-2,1,3-benzoxadiazole], the pIC50 in experiment [1], in experiment [3] (setting [6]) and in experiment [5] (setting [7]) was at most 4.70 throughout.
